Results: the supplement of paper PMC11451515

Tested on: NOMO1
Assay: cell viability relative to DMSO control; higher = less cytotoxic
Conditions: 48 h
Summary of the method: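 NOMO1, SEM and P12-Ichikawa leukemia cells spent at least four passages adapting to each medium before use. They were seeded at 500 cells/well (NOMO1, SEM) or 1000 cells/well (P12-Ichikawa) in 5 μl in 1536-well plates and pin-dosed with library compounds in DMSO at 11 threefold steps from 47 μM down to 0.79 nM. After 48 h at 37°C, CellTiter-Glo One luminescence was read. Viability is reported as a percentage of the DMSO wells on each plate, with cell-free wells as background.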

[1] = HPLM + 10% dialyzed FBS, 0.000781 µM
[2] = HPLM + 10% dialyzed FBS, 0.00234 µM
[3] = HPLM + 10% dialyzed FBS, 0.00702 µM
[4] = HPLM + 10% dialyzed FBS, 0.0211 µM
[5] = HPLM + 10% dialyzed FBS, 0.0632 µM
[6] = HPLM + 10% dialyzed FBS, 0.19 µM
[7] = HPLM + 10% dialyzed FBS, 0.569 µM
[8] = HPLM + 10% dialyzed FBS, 1.71 µM
[9] = HPLM + 10% dialyzed FBS, 5.12 µM
[10] = HPLM + 10% dialyzed FBS, 15.4 µM
[11] = HPLM + 10% dialyzed FBS, 46.1 µM
[12] = RPMI 5 mM glucose + 10% FBS, 0.000781 µM
[13] = RPMI 5 mM glucose + 10% FBS, 0.00234 µM
[14] = RPMI 5 mM glucose + 10% FBS, 0.00702 µM
[15] = RPMI 5 mM glucose + 10% FBS, 0.0211 µM
[16] = RPMI 5 mM glucose + 10% FBS, 0.0632 µM
[17] = RPMI 5 mM glucose + 10% FBS, 0.19 µM
[18] = RPMI 5 mM glucose + 10% FBS, 0.569 µM
[19] = RPMI 5 mM glucose + 10% FBS, 1.71 µM
[20] = RPMI 5 mM glucose + 10% FBS, 5.12 µM
[21] = RPMI 5 mM glucose + 10% FBS, 15.4 µM
[22] = RPMI 5 mM glucose + 10% FBS, 46.1 µM
[23] = RPMI 5 mM glucose + 10% dialyzed FBS, 0.000781 µM
[24] = RPMI 5 mM glucose + 10% dialyzed FBS, 0.00234 µM
[25] = RPMI 5 mM glucose + 10% dialyzed FBS, 0.00702 µM
[26] = RPMI 5 mM glucose + 10% dialyzed FBS, 0.0211 µM
[27] = RPMI 5 mM glucose + 10% dialyzed FBS, 0.0632 µM
[28] = RPMI 5 mM glucose + 10% dialyzed FBS, 0.19 µM
[29] = RPMI 5 mM glucose + 10% dialyzed FBS, 0.569 µM
[30] = RPMI 5 mM glucose + 10% dialyzed FBS, 1.71 µM
[31] = RPMI 5 mM glucose + 10% dialyzed FBS, 5.12 µM
[32] = RPMI 5 mM glucose + 10% dialyzed FBS, 15.4 µM
[33] = RPMI 5 mM glucose + 10% dialyzed FBS, 46.1 µM

CCOc1cc(/C=C2/C(=O)N(c3ccccc3)N=C2C)cc(Cl)c1OCC(=O)OC
cell viability [1]: 86.1%
cell viability [2]: 92.5%
cell viability [3]: 93%
cell viability [4]: 93.5%
cell viability [5]: 84.4%
cell viability [6]: 95.5%
cell viability [7]: 101%
cell viability [8]: 96.3%
cell viability [9]: 87.5%
cell viability [10]: 77.6%
cell viability [11]: 85.1%
cell viability [12]: 81.8%
cell viability [13]: 80.8%
cell viability [14]: 82.1%
cell viability [15]: 89.2%
cell viability [16]: 93.6%
cell viability [17]: 89.5%
cell viability [18]: 93.3%
cell viability [19]: 88.4%
cell viability [20]: 78.4%
cell viability [21]: 91.8%
cell viability [22]: 83%
cell viability [23]: 89.2%
cell viability [24]: 88.5%
cell viability [25]: 94.9%
cell viability [26]: 85.5%
cell viability [27]: 92.6%
cell viability [28]: 102%
cell viability [29]: 85%
cell viability [30]: 82.8%
cell viability [31]: 86.7%
cell viability [32]: 84.6%
cell viability [33]: 87.5%

Cc1ccc(NC(=O)Nc2cc(C(F)(F)F)ccc2F)cc1Nc1ccc2c(c1)NC(=O)/C2=C\c1ccc[nH]1
cell viability [12]: 108%
cell viability [13]: 126%
cell viability [14]: 118%
cell viability [15]: 124%
cell viability [16]: 133%
cell viability [17]: 139%
cell viability [18]: 149%
cell viability [19]: 161%
cell viability [20]: 136%
cell viability [21]: 132%
cell viability [22]: 40.4%
cell viability [23]: 116%
cell viability [24]: 124%
cell viability [25]: 140%
cell viability [26]: 140%
cell viability [27]: 149%
cell viability [28]: 150%
cell viability [29]: 149%
cell viability [30]: 160%
cell viability [31]: 154%
cell viability [32]: 115%
cell viability [33]: 28.1%

C=CCc1cc(OC)c(O)c(C(=O)NCCO)c1
cell viability [1]: 98.4%
cell viability [2]: 113%
cell viability [3]: 96%
cell viability [4]: 105%
cell viability [5]: 105%
cell viability [6]: 113%
cell viability [7]: 107%
cell viability [8]: 106%
cell viability [9]: 85.7%
cell viability [10]: 81.4%
cell viability [11]: 74.2%
cell viability [12]: 95.3%
cell viability [13]: 112%
cell viability [14]: 103%
cell viability [15]: 96.1%
cell viability [16]: 101%
cell viability [17]: 101%
cell viability [18]: 96.1%
cell viability [19]: 106%
cell viability [20]: 93.4%
cell viability [21]: 101%
cell viability [22]: 87.1%
cell viability [23]: 98.5%
cell viability [24]: 99.5%
cell viability [25]: 104%
cell viability [26]: 106%
cell viability [27]: 109%
cell viability [28]: 98.6%
cell viability [29]: 89.7%
cell viability [30]: 96.7%
cell viability [31]: 87.7%
cell viability [32]: 84%
cell viability [33]: 79.5%

O=C(C[C@@H]1C/C=C\CCC(=O)O[C@H](c2ccccc2)CNC1=O)NCc1ccc(Cl)cc1
cell viability [1]: 112%
cell viability [2]: 125%
cell viability [3]: 117%
cell viability [4]: 125%
cell viability [5]: 111%
cell viability [6]: 138%
cell viability [7]: 133%
cell viability [8]: 114%
cell viability [9]: 121%
cell viability [10]: 118%
cell viability [11]: 114%
cell viability [12]: 87.2%
cell viability [13]: 106%
cell viability [14]: 120%
cell viability [15]: 109%
cell viability [16]: 104%
cell viability [17]: 115%
cell viability [18]: 114%
cell viability [19]: 102%
cell viability [20]: 109%
cell viability [21]: 98.5%
cell viability [22]: 110%
cell viability [23]: 92.2%
cell viability [24]: 114%
cell viability [25]: 99.3%
cell viability [26]: 111%
cell viability [27]: 113%
cell viability [28]: 117%
cell viability [29]: 120%
cell viability [30]: 125%
cell viability [31]: 105%
cell viability [32]: 111%
cell viability [33]: 99.5%

COC1=CC(=CC=C1)C2=CC=C(NC(=O)/C3=C(/CCC3)C(O)=O)C(=C2)F
cell viability [1]: 122%
cell viability [2]: 114%
cell viability [3]: 128%
cell viability [4]: 113%
cell viability [5]: 105%
cell viability [6]: 87.8%
cell viability [7]: 115%
cell viability [8]: 112%
cell viability [9]: 103%
cell viability [10]: 100%
cell viability [11]: 92.1%
cell viability [12]: 102%
cell viability [13]: 109%
cell viability [14]: 103%
cell viability [15]: 97.8%
cell viability [16]: 96.3%
cell viability [17]: 116%
cell viability [18]: 99.2%
cell viability [19]: 109%
cell viability [20]: 104%
cell viability [21]: 96%
cell viability [22]: 84.7%
cell viability [23]: 115%
cell viability [24]: 105%
cell viability [25]: 122%
cell viability [26]: 121%
cell viability [27]: 120%
cell viability [28]: 121%
cell viability [29]: 113%
cell viability [30]: 107%
cell viability [31]: 106%
cell viability [32]: 102%
cell viability [33]: 63.8%

CCCCCCCCOc1ccccc1C(=O)Nc1ccc(C(=O)OCC[N+](C)(CC)CC)cc1
cell viability [1]: 101%
cell viability [2]: 104%
cell viability [3]: 103%
cell viability [4]: 104%
cell viability [5]: 110%
cell viability [6]: 99.5%
cell viability [7]: 85.8%
cell viability [8]: 100%
cell viability [9]: 78.1%
cell viability [10]: 88.1%
cell viability [11]: 28.7%
cell viability [12]: 84.6%
cell viability [13]: 94.7%
cell viability [14]: 93.2%
cell viability [15]: 83.8%
cell viability [16]: 93.4%
cell viability [17]: 86.4%
cell viability [18]: 90.1%
cell viability [19]: 83.7%
cell viability [20]: 82%
cell viability [21]: 81%
cell viability [22]: 21.7%
cell viability [23]: 92.8%
cell viability [24]: 93.5%
cell viability [25]: 96.6%
cell viability [26]: 90.1%
cell viability [27]: 98.3%
cell viability [28]: 91.9%
cell viability [29]: 83.7%
cell viability [30]: 84.4%
cell viability [31]: 73.9%
cell viability [32]: 88.8%
cell viability [33]: 31.8%

COc1ccc2c(OCc3nnc4ccc(-c5ccccc5)nn34)ccnc2c1
cell viability [1]: 94.4%
cell viability [2]: 98.9%
cell viability [3]: 86.7%
cell viability [4]: 92.8%
cell viability [5]: 90.2%
cell viability [6]: 93.9%
cell viability [7]: 104%
cell viability [8]: 83.9%
cell viability [9]: 94%
cell viability [10]: 104%
cell viability [11]: 65.2%
cell viability [12]: 113%
cell viability [13]: 123%
cell viability [14]: 116%
cell viability [15]: 116%
cell viability [16]: 117%
cell viability [17]: 114%
cell viability [18]: 117%
cell viability [19]: 116%
cell viability [20]: 112%
cell viability [21]: 113%
cell viability [22]: 116%
cell viability [23]: 113%
cell viability [24]: 123%
cell viability [25]: 133%
cell viability [26]: 119%
cell viability [27]: 129%
cell viability [28]: 102%
cell viability [29]: 131%
cell viability [30]: 116%
cell viability [31]: 115%
cell viability [32]: 119%
cell viability [33]: 122%

O=[N+]([O-])c1ccc(Nc2ccccc2-c2ccccc2)c2nonc12
cell viability [1]: 87.1%
cell viability [2]: 84.3%
cell viability [3]: 100%
cell viability [4]: 92.6%
cell viability [5]: 81.9%
cell viability [6]: 100%
cell viability [7]: 97%
cell viability [8]: 101%
cell viability [9]: 106%
cell viability [10]: 89%
cell viability [11]: 98.1%
cell viability [12]: 81.5%
cell viability [13]: 89.9%
cell viability [14]: 87.9%
cell viability [15]: 91.9%
cell viability [16]: 85.3%
cell viability [17]: 92.8%
cell viability [18]: 84.4%
cell viability [19]: 102%
cell viability [20]: 95.8%
cell viability [21]: 94.2%
cell viability [22]: 89.4%
cell viability [23]: 76.3%
cell viability [24]: 82.6%
cell viability [25]: 88%
cell viability [26]: 89.8%
cell viability [27]: 92.5%
cell viability [28]: 90.2%
cell viability [29]: 89.2%
cell viability [30]: 96.1%
cell viability [31]: 87.5%
cell viability [32]: 78.2%
cell viability [33]: 88.7%
